Test results reported in patent US20050119310A1, “Use of n-substituted-1,5-dideoxy-1,5-imino-d-glucitol compounds for treating hepatitis virus infections” (priority 2000, published 2005).

How the values were obtained:
[1] = tested on: hepatitis B virus in HepG 2.2.15 (2.2.15) cells; experiment: IC-90 values used for the combostat method (earlier determinations); format: cell-based; settings: HepG2.2.15, T. Block and G. Jacob, unpublished observation
Experimental: The anti-hepatitis B virus effect of (−)-2′-deoxy-3′-thiocytidine-5′-triphosphate (3TC) alone and in combination with N-nonyl-DNJ was determined according to Korba ((1996) Antiviral Research 29(1):49-51), using the “combostat” strategy (Comstat Program, Combostat Corp., Duluth, Minn.). The combostat method involves serially diluting the IC-90 of each compound. The IC-90 of N-nonyl-DNJ has been determined to be between 4 and 10 μg/ml (T. Block and G. Jacob, unpublished observation). The accepted IC-90 for 3TC in HepG 2.2.15 (2.2.15) cells is 300 nM to 500 nM (Doong et al. (1991) Proc. Natl. Acad. Sci. USA 88:8495-8499).

[2] = tested on: woodchuck hepatitis virus (WHV); experiment: Woodchuck model, N-nonyl-DNJ monotherapy, total HBV DNA and immune precipitated HBV DNA (IPDNA); format: in vivo
Experimental: Therefore, five groups of four animals each (all groups had both sexes, all but the control had two of each sex) were assigned to 0, 12.5, 25, 50, and 100 mg/kg/day with BID oral dosing. These were lab-reared wild animals. All animals were infected with woodchuck hepatitis virus (WHV) as neonates, and had been tested positive on serological tests for WHV surface antigen. Blood samples were drawn one week prior to dosing (−1 week), immediately before dosing (0 weeks), weekly during dosing (1, 2, 3, and 4 weeks), and after the end of dosing (5, 6, 8, and 10 weeks).
There are two measures of drug efficacy: reduction in total HBV DNA (measured by quantitative PCR), and reduction in HBV DNA from capsids with intact surface glycoproteins, which is the active form of the virus (measured by an ELISA-like immune precipitation assay followed by quantitative PCR).
Before models are fitted to the data, a log transform was applied because: 1) the variation in IPDNA increases with increasing IPDNA values; the log transformation gives values with a nearly constant variation, and 2) it is expected that drug effects will appear as a constant multiplier of the IPDNA level. Because there are zero values of IPDNA, a small value (about ½ of the smallest non-zero value) was added to all values before the log transform.
Two approaches were used to model the changes in slope to week with dose of N-nonyl-DNJ: a linear modeling approach and a nonlinear model. Both approaches assume that the (linear) rate of change of the Log(IPDNA) measure over the dosing period is the “right” measure to reflect the effect of the drug on the virus. Both approaches are fit in stages, and the first stage is common to both approaches. First, a simple straight line regression model is fit using weeks 0-4 to predict log(IPDNA+10) separately for each animal by run combination. In the second stage, the response variable is the slope fitted in the first stage.
For the linear approach, a model is fit with slope to week as the response where run is considered a block, dose has a significant effect (almost all of this effect is due to a slope to dose), and the relevant error for testing the effect of dose is the variation among animals treated alike (after the adjustment for the runs as blocks). This is similar to using the calibration data within each run to first adjust each run's data to a common virus DNA concentration; the difference is that here the data from the woodchucks are used for the run adjustment rather than only the calibration data.
For the nonlinear approach, a four parameter logistic model is fit with the slope to week as the response and the dose as the predictor. Again, run is considered a block, but because no run has all weeks, it is not possible to fully reflect the blocking in the nonlinear approach. […] The average maximum slope observed was 2.71 additional Log(IPDNA μg/mL)/week, or an increase of about 150%/week, the average minimum slope observed with N-nonyl-DNJ is 0.31 fewer Log(IPDNA μg/mL)/week), or about a decrease of about 25%/week. The slopes, the fitted model, the parameter estimates from the model, and the approximate standard errors for these parameters are all shown in FIG. 3. […] Whether in woodchucks or humans, the effective dose of both the N-alkyl-DNJ and nucleoside or nucleotide antiviral agent administered in combination therewith can be administered in two equal daily subdoses (i.e., B.I.D.).

[3] = tested on: Hepatitis B Virus; experiment: Hepatitis B virus secretion from chronically HBV secreting HepG2.2.15 cells (preS1 immunoprecipitation / PCR); format: cell-based; settings: 3 days of incubation, control = 100%
Experimental: The anti-hepatitis B virus activity and effect on cell viability of a number of different N-substituted-1,5-dideoxy-1,5-imino-D-glucitol compounds were assessed using an in vitro assay employing chronically hepatitis B virus secreting HepG2.2.15 cells. The method employed was essentially that described in Block et al. (1994) Proc. Natl. Acad. Sci. USA 91:2235-2239.

[4] = woodchuck, weeks 0-4, with N-nonyl-DNJ

| Structure (SMILES) | IC90 [1] | effect on total HBV DNA measurements ([2]; woodchuck, 12.5-100 mg/kg/day BID oral, 4 weeks of dosing) | EC50, four parameter logistic model of slope of Log(IPDNA+10) to week versus dose ([2]; woodchuck, oral BID) | increase of IPDNA at average maximum slope ([2]; woodchuck, weeks 0-4) | average maximum slope observed, additional Log(IPDNA)/week ([2]; woodchuck, weeks 0-4, upper end of fitted model) | average minimum slope observed, fewer Log(IPDNA)/week [2, 4] | decrease of IPDNA at average minimum slope [2, 4] | approximate effective monotherapy dose ([2]; woodchucks) | Relative amount of HBV secreted, as a % of control ([3]; concentration [200]) | Relative amount of HBV secreted, as a % of control ([3]; concentration [1000]) |
| --- | --- | --- | --- | --- | --- | --- | --- | --- | --- | --- |
| CCCCCCCCCN1C[C@H](O)[C@@H](O)[C@H](O)[C@H]1CO [Compound 1, N-(n-nonyl)-1,5-dideoxy-1,5-imino-D-glucitol] | 4 to 10 mg/L | no effect | 7.88 mg/kg/BID dose | about 150 %/week | 2.71 Log(IPDNA μg/mL)/week | 0.31 Log(IPDNA μg/mL)/week | about 25 %/week | about 16 mg/kg/day | – | – |
| CCC(CC)CN1C[C@H](O)[C@@H](O)[C@H](O)[C@H]1CO [Compound 3, N-(2-ethylbutyl)-1,5-dideoxy-1,5-imino-D-glucitol] | – | – | – | – | – | – | – | – | 45.0 +/− 30 (n = 3) % | 5.0 +/− 20 (n = 3) % |
| CCCCN1C[C@H](O)[C@@H](O)[C@H](O)[C@H]1CO [NBDNJ, N-(n-butyl-)-1,5-dideoxy-1,5-imino-D-glucitol] | – | – | – | – | – | – | – | – | 37.0 +/− 13 (n = 15) % | 3.2 +/− 5 (n = 15) % |
